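All cell lines were grown in 96-well plates and treated with compound for 48 hours. At the TGI there is no net growth.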
Assays:
Assay in all cases: NCI-60 cell line screen, 48 h
786-0 renal = tested on: 786-0 renal
NCI-H23 lung = tested on: NCI-H23 lung
NCI/ADR-RES ovarian = tested on: NCI/ADR-RES ovarian
NCI-H522 lung = tested on: NCI-H522 lung
SF-539 CNS = tested on: SF-539 CNS
ACHN renal = tested on: ACHN renal
SK-MEL-28 melanoma = tested on: SK-MEL-28 melanoma
SK-OV-3 ovarian = tested on: SK-OV-3 ovarian
HS 578T breast = tested on: HS 578T breast
SW-620 colon = tested on: SW-620 colon
RPMI-8226 leukemia = tested on: RPMI-8226 leukemia
MDA-MB-435 = tested on: MDA-MB-435
LOX IMVI melanoma = tested on: LOX IMVI melanoma
MDA-N = tested on: MDA-N
KM12 colon = tested on: KM12 colon
OVCAR-4 ovarian = tested on: OVCAR-4 ovarian
PC-3 prostate = tested on: PC-3 prostate
HL-60(TB) leukemia = tested on: HL-60(TB) leukemia
UO-31 renal = tested on: UO-31 renal
SN12C renal = tested on: SN12C renal
IGROV1 ovarian = tested on: IGROV1 ovarian
HCC-2998 colon = tested on: HCC-2998 colon
SR leukemia = tested on: SR leukemia
SNB-75 CNS = tested on: SNB-75 CNS
MDA-MB-231 breast = tested on: MDA-MB-231 breast
DU-145 prostate = tested on: DU-145 prostate
HT29 colon = tested on: HT29 colon
NCI-H226 lung = tested on: NCI-H226 lung
BT-549 breast = tested on: BT-549 breast
OVCAR-5 ovarian = tested on: OVCAR-5 ovarian
SK-MEL-2 melanoma = tested on: SK-MEL-2 melanoma
OVCAR-3 ovarian = tested on: OVCAR-3 ovarian
A498 renal = tested on: A498 renal
A549 NSCLC = tested on: A549 NSCLC
UACC-257 melanoma = tested on: UACC-257 melanoma
EKVX NSCLC = tested on: EKVX NSCLC
MCF7 breast = tested on: MCF7 breast
UACC-62 melanoma = tested on: UACC-62 melanoma
TK-10 renal = tested on: TK-10 renal
MALME-3M melanoma = tested on: MALME-3M melanoma
HOP-92 NSCLC = tested on: HOP-92 NSCLC
HOP-62 NSCLC = tested on: HOP-62 NSCLC
SF-268 CNS = tested on: SF-268 CNS
SK-MEL-5 melanoma = tested on: SK-MEL-5 melanoma
MOLT-4 leukemia = tested on: MOLT-4 leukemia
HCT-15 colon = tested on: HCT-15 colon
U251 CNS = tested on: U251 CNS
COLO 205 colon = tested on: COLO 205 colon
SF-295 CNS = tested on: SF-295 CNS
T-47D breast = tested on: T-47D breast
M14 melanoma = tested on: M14 melanoma
HCT-116 colon = tested on: HCT-116 colon
CAKI-1 renal = tested on: CAKI-1 renal
K-562 leukemia = tested on: K-562 leukemia
RXF 393 renal = tested on: RXF 393 renal
NCI-H460 lung = tested on: NCI-H460 lung
OVCAR-8 ovarian = tested on: OVCAR-8 ovarian
SNB-19 CNS = tested on: SNB-19 CNS
CCRF-CEM leukemia = tested on: CCRF-CEM leukemia

SMILES: C=C[C@]1(C)C[C@@H](OC(=O)CO)[C@@]2(C)[C@H](C)CC[C@]3(CCC(=O)[C@H]32)[C@@H](C)[C@@H]1O
- TGI (786-0 renal): > 100 µM
- TGI (NCI-H23 lung): > 100 µM
- TGI (NCI/ADR-RES ovarian): > 100 µM
- TGI (NCI-H522 lung): > 100 µM
- TGI (SF-539 CNS): > 100 µM
- TGI (ACHN renal): > 100 µM
- TGI (SK-MEL-28 melanoma): > 100 µM
- TGI (SK-OV-3 ovarian): > 100 µM
- TGI (HS 578T breast): 97 µM
- TGI (SW-620 colon): > 100 µM
- TGI (RPMI-8226 leukemia): > 100 µM
- TGI (MDA-MB-435): > 100 µM
- TGI (LOX IMVI melanoma): > 31.6 µM
- TGI (MDA-N): > 100 µM
- TGI (KM12 colon): > 100 µM
- TGI (OVCAR-4 ovarian): > 100 µM
- TGI (PC-3 prostate): > 100 µM
- TGI (HL-60(TB) leukemia): > 100 µM
- TGI (UO-31 renal): > 100 µM
- TGI (SN12C renal): > 100 µM
- TGI (IGROV1 ovarian): > 100 µM
- TGI (HCC-2998 colon): > 100 µM
- TGI (SR leukemia): > 74.2 µM
- TGI (SNB-75 CNS): > 100 µM
- TGI (MDA-MB-231 breast): > 100 µM
- TGI (DU-145 prostate): > 100 µM
- TGI (HT29 colon): > 100 µM
- TGI (NCI-H226 lung): > 100 µM
- TGI (BT-549 breast): > 100 µM
- TGI (OVCAR-5 ovarian): > 100 µM
- TGI (SK-MEL-2 melanoma): > 100 µM
- TGI (OVCAR-3 ovarian): > 100 µM
- TGI (A498 renal): > 78.2 µM
- TGI (A549 NSCLC): > 100 µM
- TGI (UACC-257 melanoma): > 100 µM
- TGI (EKVX NSCLC): > 100 µM
- TGI (MCF7 breast): > 100 µM
- TGI (UACC-62 melanoma): > 50.3 µM
- TGI (TK-10 renal): > 100 µM
- TGI (MALME-3M melanoma): > 100 µM
- TGI (HOP-92 NSCLC): > 100 µM
- TGI (HOP-62 NSCLC): > 100 µM
- TGI (SF-268 CNS): > 100 µM
- TGI (SK-MEL-5 melanoma): > 100 µM
- TGI (MOLT-4 leukemia): > 75.5 µM
- TGI (HCT-15 colon): > 100 µM
- TGI (U251 CNS): > 100 µM
- TGI (COLO 205 colon): > 100 µM
- TGI (SF-295 CNS): > 100 µM
- TGI (T-47D breast): > 100 µM
- TGI (M14 melanoma): > 100 µM
- TGI (HCT-116 colon): > 100 µM
- TGI (CAKI-1 renal): > 100 µM
- TGI (K-562 leukemia): > 75.1 µM
- TGI (RXF 393 renal): > 100 µM
- TGI (NCI-H460 lung): > 100 µM
- TGI (OVCAR-8 ovarian): > 100 µM
- TGI (SNB-19 CNS): > 100 µM

SMILES: CCOC(=O)NC(C(F)(F)F)(C(F)(F)F)P(=O)(OCC(C)C)OCC(C)C
- TGI (NCI/ADR-RES ovarian): 47 µM
- TGI (NCI-H522 lung): 11.6 µM
- TGI (SF-539 CNS): 48.8 µM
- TGI (ACHN renal): 52.8 µM
- TGI (SK-MEL-28 melanoma): 54.2 µM
- TGI (SK-OV-3 ovarian): 66.9 µM
- TGI (HS 578T breast): 56.5 µM
- TGI (SW-620 colon): 17.2 µM
- TGI (RPMI-8226 leukemia): > 100 µM
- TGI (MDA-MB-435): > 100 µM
- TGI (LOX IMVI melanoma): 20.6 µM
- TGI (MDA-N): 27.1 µM
- TGI (KM12 colon): > 100 µM
- TGI (PC-3 prostate): > 100 µM
- TGI (HL-60(TB) leukemia): 22.4 µM
- TGI (UO-31 renal): 30.3 µM
- TGI (SN12C renal): 49 µM
- TGI (IGROV1 ovarian): 51.5 µM
- TGI (HCC-2998 colon): > 100 µM
- TGI (SR leukemia): > 100 µM
- TGI (SNB-75 CNS): 97.1 µM
- TGI (MDA-MB-231 breast): 39 µM
- TGI (DU-145 prostate): > 100 µM
- TGI (HT29 colon): 33.8 µM
- TGI (NCI-H226 lung): 32.6 µM
- TGI (BT-549 breast): 29 µM
- TGI (OVCAR-5 ovarian): 58.7 µM
- TGI (SK-MEL-2 melanoma): 43 µM
- TGI (OVCAR-3 ovarian): 64 µM
- TGI (CCRF-CEM leukemia): > 100 µM
- TGI (A498 renal): > 100 µM
- TGI (A549 NSCLC): > 100 µM
- TGI (EKVX NSCLC): 74.6 µM
- TGI (MCF7 breast): 21.1 µM
- TGI (UACC-62 melanoma): 29.4 µM
- TGI (TK-10 renal): 65.8 µM
- TGI (MALME-3M melanoma): 60.7 µM
- TGI (HOP-92 NSCLC): 36.7 µM
- TGI (HOP-62 NSCLC): > 100 µM
- TGI (SF-268 CNS): 57.3 µM
- TGI (SK-MEL-5 melanoma): 24.9 µM
- TGI (HCT-15 colon): 17.1 µM
- TGI (U251 CNS): > 100 µM
- TGI (COLO 205 colon): 31 µM
- TGI (SF-295 CNS): > 100 µM
- TGI (T-47D breast): > 100 µM
- TGI (M14 melanoma): 26.1 µM
- TGI (HCT-116 colon): 16.6 µM
- TGI (CAKI-1 renal): > 100 µM
- TGI (K-562 leukemia): > 100 µM
- TGI (RXF 393 renal): 24.5 µM
- TGI (NCI-H460 lung): > 100 µM
- TGI (OVCAR-8 ovarian): 31.4 µM
- TGI (SNB-19 CNS): > 100 µM

SMILES: Cc1c2cccc(Sc3ccccc3)c2c2c3c(cccc13)[S+](c1ccccc1)C2 (stereo not given)
- TGI (786-0 renal): 13.9 µM
- TGI (NCI-H23 lung): 9.82 µM
- TGI (NCI/ADR-RES ovarian): > 100 µM
- TGI (NCI-H522 lung): 4.51 µM
- TGI (SF-539 CNS): 7.91 µM
- TGI (ACHN renal): 12.7 µM
- TGI (SK-MEL-28 melanoma): 6.84 µM
- TGI (SK-OV-3 ovarian): 6.58 µM
- TGI (HS 578T breast): 13.9 µM
- TGI (SW-620 colon): 16.7 µM
- TGI (RPMI-8226 leukemia): 2.85 µM
- TGI (MDA-MB-435): 5.24 µM
- TGI (LOX IMVI melanoma): 3.52 µM
- TGI (MDA-N): 13.8 µM
- TGI (KM12 colon): 2.85 µM
- TGI (OVCAR-4 ovarian): 11.7 µM
- TGI (PC-3 prostate): 5.71 µM
- TGI (HL-60(TB) leukemia): 2.82 µM
- TGI (UO-31 renal): 8.28 µM
- TGI (SN12C renal): 11.5 µM
- TGI (IGROV1 ovarian): 9.12 µM
- TGI (HCC-2998 colon): 4.49 µM
- TGI (SR leukemia): 4.91 µM
- TGI (SNB-75 CNS): 8.14 µM
- TGI (MDA-MB-231 breast): 5.68 µM
- TGI (DU-145 prostate): 15.3 µM
- TGI (HT29 colon): 7.38 µM
- TGI (NCI-H226 lung): 7.54 µM
- TGI (BT-549 breast): 9.87 µM
- TGI (OVCAR-5 ovarian): 12.1 µM
- TGI (SK-MEL-2 melanoma): 3.71 µM
- TGI (OVCAR-3 ovarian): 6.01 µM
- TGI (A498 renal): 8.32 µM
- TGI (A549 NSCLC): 14.7 µM
- TGI (UACC-257 melanoma): 3.57 µM
- TGI (EKVX NSCLC): 19.5 µM
- TGI (MCF7 breast): 8.93 µM
- TGI (UACC-62 melanoma): 3.67 µM
- TGI (TK-10 renal): 9.55 µM
- TGI (MALME-3M melanoma): 4.67 µM
- TGI (HOP-92 NSCLC): 6.6 µM
- TGI (HOP-62 NSCLC): 7.35 µM
- TGI (SF-268 CNS): 11.8 µM
- TGI (SK-MEL-5 melanoma): 2.1 µM
- TGI (MOLT-4 leukemia): 4.55 µM
- TGI (HCT-15 colon): 27.8 µM
- TGI (U251 CNS): 9.41 µM
- TGI (COLO 205 colon): 2.46 µM
- TGI (SF-295 CNS): 6.33 µM
- TGI (T-47D breast): 8.24 µM
- TGI (M14 melanoma): 6.78 µM
- TGI (HCT-116 colon): 9.59 µM
- TGI (CAKI-1 renal): 11.4 µM
- TGI (K-562 leukemia): 11.2 µM
- TGI (RXF 393 renal): 14.9 µM
- TGI (NCI-H460 lung): 4.1 µM
- TGI (OVCAR-8 ovarian): 12.4 µM
- TGI (SNB-19 CNS): 11.2 µM

— PubChem BioAssay (NCI)
